Read-outs that look alike come from different tables or passages of the source.
Key:
[1] = biological target: T1, human 5-HT7 receptors (Homo sapiens, UniProt P34969); test: 5-HT7 binding assay (3H-5CT); details: human 5-HT7 membrane, 3H-5CT 0.5 nM
T1 construct: purchased Euroscreen
Procedure: The compounds of the present invention were screened for binding affinity using membranes containing stably expressed human M4 muscarinic receptors or human 5-HT7 receptors.
Total volume 200 μl/well. Membrane concentration—human 5-HT7 membrane (purchased from Euroscreen)—6 μg/ml; ^3H-5CT 0.5 nM; Sample conc. 10 nM-300 μM; 8OH-DPAT Displacement Curve—1 nM-3 μM. The plates are incubated at 20° C. for 120 minutes in the dark to avoid any photo degradation. Membranes are harvested by rapid filtration using a vacuum manifold under 700 mbar pressure. The plates are washed 3 times with 200 ul/well of ice-cold wash buffer. Plates are dried at 40° C. for 1 hour (Higher CPMs are obtained when the filters are dried) 100 μl scintillation fluid is added to each well and cpm determined using a Microbeta scintillation counter.

[2] = biological target: T2, human M4 muscarinic receptors (Homo sapiens, UniProt P08173); test: M4 binding assay (3H-NMS); details: human M4 membranes, 3H-NMS 0.25 nM
T2 construct: purchased NEN
T2 sequence (P08173 1-479): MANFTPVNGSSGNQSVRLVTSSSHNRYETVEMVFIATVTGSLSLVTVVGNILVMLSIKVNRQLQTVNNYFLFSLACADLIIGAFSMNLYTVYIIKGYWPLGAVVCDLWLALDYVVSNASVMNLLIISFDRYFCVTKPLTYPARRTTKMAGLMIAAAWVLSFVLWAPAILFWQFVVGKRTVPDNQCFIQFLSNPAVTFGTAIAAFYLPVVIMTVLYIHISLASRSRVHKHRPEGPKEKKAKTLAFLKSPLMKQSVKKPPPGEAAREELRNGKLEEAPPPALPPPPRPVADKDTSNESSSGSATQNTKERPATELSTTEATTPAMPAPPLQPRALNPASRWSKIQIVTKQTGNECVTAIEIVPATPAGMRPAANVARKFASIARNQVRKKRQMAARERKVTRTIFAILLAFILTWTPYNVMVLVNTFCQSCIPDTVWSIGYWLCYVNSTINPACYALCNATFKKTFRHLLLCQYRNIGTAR
Procedure: Total volume 200 μl/well. Membrane concentration—human M4 membranes (NEN)—8 μg/ml; ^3H-NMS 0.25 nM; Sample conc. 10 nM-300 μM; Atropine Displacement Curve—0.3 nM-1 μM.
The plates are incubated at 20° C. for 60 minutes in the dark to avoid any photo degradation. Membranes are harvested by rapid filtration using a vacuum manifold under 700 mbar pressure. The plates are washed 3 times with 200 ul per well of ice-cold wash buffer. Plates are dried at 40° C. for 1 hour, 100 μl scintillation fluid is added to each well and cpm determined using a Microbeta scintillation counter.

[3] = biological target: T3, human D2 membrane (Homo sapiens, UniProt P14416); test: D2 binding assay (3H-spiperone); details: 3H-spiperone 0.5 nM
T3 construct: purchased Euroscreen
T3 sequence (P14416 whole entry): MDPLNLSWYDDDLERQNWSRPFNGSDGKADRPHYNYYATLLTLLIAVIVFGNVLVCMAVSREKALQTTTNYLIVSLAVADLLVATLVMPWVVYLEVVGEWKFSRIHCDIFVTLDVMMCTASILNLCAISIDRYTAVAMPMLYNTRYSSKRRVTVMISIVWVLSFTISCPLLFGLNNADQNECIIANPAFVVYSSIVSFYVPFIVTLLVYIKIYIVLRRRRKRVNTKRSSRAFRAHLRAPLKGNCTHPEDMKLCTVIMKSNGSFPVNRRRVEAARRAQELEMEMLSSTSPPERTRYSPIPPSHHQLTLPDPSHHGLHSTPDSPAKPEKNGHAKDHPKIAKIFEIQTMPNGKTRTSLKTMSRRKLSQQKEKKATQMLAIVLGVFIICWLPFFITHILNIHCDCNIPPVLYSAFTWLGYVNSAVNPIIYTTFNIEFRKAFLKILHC
Procedure: Total volume 200 μl/well. Membrane concentration—human D2 membrane (purchased from Euroscreen)—10 μg/ml; ^3H-spiperone 0.5 nM; Sample conc. 10 nM-300 μM; Haloperidol Displacement Curve—1 nM-10 μM. The plates are incubated at 25° C. for 60 minutes in the dark to avoid any photo degradation.
Membranes are harvested by rapid filtration using a vacuum manifold under 700 mbar pressure. The plates are washed 3 times with 200 ul/well of ice-cold wash buffer. Plates are dried at 40° C. for 1 hour (Higher CPMs are obtained when the filters are dried). 100 μl scintillation fluid is added to each well and cpm determined using a Microbeta scintillation counter.

[4] = biological target: T4, M4 muscarinic receptors (N1E-115 cells) (Mus musculus, UniProt P32211); test: Homogenate assay for c-AMP production (PACAP-stimulated); type: biochemical; details: N1E-115 homogenate; for reduction of c-AMP levels (agonist activity): PACAP 0.1 nM stimulation
T4 construct: endogenous in cells; host or cells: mouse N1E-115 cells (homogenate)
T4 sequence (P32211 1-479): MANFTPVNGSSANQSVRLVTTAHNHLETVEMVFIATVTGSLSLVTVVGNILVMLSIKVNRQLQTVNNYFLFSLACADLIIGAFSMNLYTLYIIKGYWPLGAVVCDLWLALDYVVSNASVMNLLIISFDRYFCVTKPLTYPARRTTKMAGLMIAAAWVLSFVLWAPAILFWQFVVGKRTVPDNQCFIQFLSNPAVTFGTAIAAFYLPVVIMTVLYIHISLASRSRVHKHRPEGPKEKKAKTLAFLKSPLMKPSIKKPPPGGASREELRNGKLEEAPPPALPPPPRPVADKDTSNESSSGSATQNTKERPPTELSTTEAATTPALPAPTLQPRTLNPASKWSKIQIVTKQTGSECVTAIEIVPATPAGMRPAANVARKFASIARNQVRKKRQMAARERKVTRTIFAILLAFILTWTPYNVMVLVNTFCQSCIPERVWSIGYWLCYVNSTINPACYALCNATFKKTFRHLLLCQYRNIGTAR
Procedure: N1E-115 cells were harvested by scraping and placed in Ribolyser tubes on dry ice. Ice cold buffer (0.5 ml) containing 50 mM Tris HCl, 0.4 mM EDTA and 0.4 mM EGTA (pH 7.4) was added to the tubes. The tubes were then placed in a Ribolyser and shaken at 4 g for 20 sec. The homogenate was then transferred to eppendorf tubes and was then centrifuged at 19,700 g for 30 min at 4° C. The pellet was resuspended in ice cold 50 mM Tris HCl (pH7.4) at a concentration of 50 mg ml^−1 wet weight of tissue. The homogenate was stored in aliquots at −70° C. Protein concentrations of the homogenates were determined using a Bio-Rad protein determination kit. The assay was carried out in a final assay volume of 120 μl containing 50 mM Tris HCl (pH7.4), 5 mM MgCl2 50 μM GTP, 200 μM ATP, 120 μM sucrose, 0.4 mM EDTA, 0.4 mM EGTA, 200 μM ascorbic acid, 20 μM papaverine, 200 μM rolipram, 10 μM vinpocetine, 10 mM phosphocreatinine, 0.4 mM DTT, 100 nM WAY 100635, 1 μM propranolol, 36 μg bacitracin, 4.8 U creatine phosphokinase, 3.6 KIU aprotinin. Homogenate (1 mgml^−1) was preincubated with the test compound in ice cold assay buffer for 10 min. PACAP (0.1 nM) was then added to the tubes. The tubes were then incubated at 30° C. for 20 min and then at 99° C. for 5 min. Levels of c-AMP in the tubes were measured using the Amersham Pharmacia Biotech Biotrak c-AMP enzymeimmunoassay kit.

[5] = system: amphetamine-induced hyper-activity in rats; test: amphetamine-induced hyperactivity in rats; type: in vivo, rat; details: for Line Crossings (mean ± S.E.): amphetamine control 111.6 ± 6.4
Procedure: Male Long Evans rats (190-280 g) in each group of five were used. Amphetamine (1.0 mg/kg i.p.) was dissolved in saline, and test compounds were dissolved or suspended in 0.5% hydroxypropylmethylcellulose (HPMC) solution. All the test compounds were injected intraperitoneally in a volume of 0.1 ml/100 g, and control rats were treated with the respective vehicle. The plastic open-field box (40×40×40(H) cm) was used to measure the locomotor activity of rats. The locomotor activity was expressed as the number of line crossings marked on the floor of the test box at 20 cm square. Individual rats were placed in the test box just after the injection of amphetamine, and were allowed to habituate there for 10 min. The line crossings were counted over 15 min thereafter. The behavioural observation was conducted on two rats simultaneously using two test boxes. Test compounds were pretreated 30 min before the injection of amphetamine.

[6] = system: apomorphine-induced deficits in PPI in rats; test: apomorphine-induced deficits in prepulse inhibition (PPI); type: in vivo, rat; details: s.c. 25 minutes prior to apomorphine 0.5 mg/kg s.c.; Wistar rats
Source text: Male Wistar rats (Japan SLC Inc., Shizuoka, Japan) were used. They were housed in a light, humidity and temperature controlled environment maintained on a 12-hour/12-hour light/dark schedule (light on at 7 am) with food and water provided ad libitum. Four startle chambers (SR-LAB, San Diego Instruments, San Diego, Calif.) were placed in a sound-attenuated room. Each chamber consisted of Plexiglas cylinder 8.8 cm in diameter resting on a 12.7×20.3 cm Plexiglas stand. Acoustic stimuli and background noise were presented via a Supertweeter mounted 24 cm above the Plexiglas cylinder. Startle magnitude was detected and recorded by a microcomputer and interface assembly (San Diego Instruments) as transduced cylinder movement via a piezoelectric device mounted below the Plexiglas stand.
One day before drug testing, all rats were exposed to a “matching” startle session. Data from this session were used to assign rats to balanced groups according to their startle responses. […] Each session was approximately 20 minutes and consisted of 5 minutes of 70-dB background followed by five trial types, PULSE ALONE trial: a 120-dB 50 ms noise burst, PREPULSE trials which consisted of 20 ms noise bursts 3, 5, 10 dB above 70-dB background noise followed 100 ms later by a 120-dB 40 ms noise burst, NOSTIM trial: 100 ms of response was recorded during periods where no stimulus was presented. […]

[7] = system: chronic PCP-treated rats; details: cited from earlier work
[8] = system: chronic PCP-treated rats; test: LCGU (2-DG) in chronic PCP rat model

T1 sequence (P34969 whole entry): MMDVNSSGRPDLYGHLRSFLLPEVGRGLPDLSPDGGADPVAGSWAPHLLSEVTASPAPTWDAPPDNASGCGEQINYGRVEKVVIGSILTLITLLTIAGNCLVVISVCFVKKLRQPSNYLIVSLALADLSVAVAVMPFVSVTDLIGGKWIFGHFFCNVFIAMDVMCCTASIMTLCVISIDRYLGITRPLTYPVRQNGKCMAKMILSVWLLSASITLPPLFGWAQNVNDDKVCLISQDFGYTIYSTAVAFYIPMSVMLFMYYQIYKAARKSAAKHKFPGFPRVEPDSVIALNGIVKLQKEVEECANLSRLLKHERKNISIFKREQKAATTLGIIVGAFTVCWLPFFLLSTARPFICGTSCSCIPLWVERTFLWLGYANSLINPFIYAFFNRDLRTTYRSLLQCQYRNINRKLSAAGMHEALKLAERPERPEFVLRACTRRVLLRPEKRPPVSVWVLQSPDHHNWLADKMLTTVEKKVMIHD

COc1cc2c(cc1OC)CN(/C=N/c1ccc3c(c1)C(O)CC3)CC2 (stereo not shown) [Compound 32]
Ki [1]: 400 nM
Ki [2]: 320 nM
Ki [3]: > 300000 nM
reduction of c-AMP levels (agonist activity) [4]: able to reduce cAMP levels
Line Crossings (mean ± S.E.) ([5]; dose 1 mg/kg, i.p.): 98.8 ± 7.3
Line Crossings (mean ± S.E.) ([5]; dose 3 mg/kg, i.p.): 89.6 ± 13.3
Line Crossings (mean ± S.E.) ([5]; dose 10 mg/kg, i.p.): 45.6 ± 8.3
effect on amphetamine-induced hyperactivity ([5]; rats, i.p., 30 min before amphetamine): suppressed the hyperactivity in a dose-dependent manner
ED50, suppression of amphetamine-induced hyperactivity ([5]; rats, amphetamine 1.0 mg/kg i.p., 95% confidence limits, estimated): 8.1 (95% confidence limits; 4.4-15) mg/kg, i.p.

OC1CCc2ccc(/N=C/N3CCc4ccccc4C3)cc21 (stereo not shown) [Compound 34, 6-[(3,4-dihydro-1H-isoquinolin-2-ylmethylene)-amino]-indan-1-ol]
Ki [1]: 2700 nM
Ki [2]: 2800 nM
Ki [3]: > 300000 nM

CCCSc1nsnc1[C@H]1CN2CCC[C@H]1C2 [PTAC, (5R,6R)6-(3-propylthio-1,2,5-thiadiazol-4-yl)-1-azabicyclo(3.2.1)octane]
effect on apomorphine-induced disruption of PPI [6]: Neither PTAC nor SB25871 alone affect the disruption induced by apomorphine

Cc1cccc(S(=O)(=O)N2CCC[C@@H]2CCN2CCC(C)CC2)c1 [SB258741, R-(+)-1-(toluene-3-sulfonyl)-2-[2-(4-methylpiperidin-1-yl)ethyl]pyrrolidine]
effect on apomorphine-induced disruption of PPI [6]: Neither PTAC nor SB25871 alone affect the disruption induced by apomorphine

CN1[C@@H]2CC[C@H]1C[C@@H](OC(=O)C(CO)c1ccccc1)C2 (stereo partly shown) [atropine]
blockade of the cAMP-reducing effect of Compound 32 [4]: the effect was blocked

O=C(CCCN1CCC(O)(c2ccc(Cl)cc2)CC1)c1ccc(F)cc1 [haloperidol]
effect on PCP-induced hypofunction ([7]; auditory structures, reported previously (Cochran et al., 2003)): reversed the PCP-induced hypofunction
effect on PCP-induced metabolic hypofunction ([7]; prelimbic region of the prefrontal cortex, shown previously (Cochran et al., 2003)): failed to reverse
effect on PCP-induced hypofunction ([7]; reticular nucleus of the thalamus, shown previously (Cochran et al., 2003)): failed to reverse
effect on PCP-induced metabolic hypofunction (LCGU) ([8]; prelimbic region of the prefrontal cortex, chronic treatment): not by haloperidol or clozapine
effect on PCP-reduced local glucose utilisation ([8]; ventral lateral lemniscus, chronic treatment (FIG. 4)): only partially restores the hypofunction
effect on PCP-reduced local glucose utilisation ([8]; ventral reticular thalamic nucleus, chronic treatment (FIG. 3)): not by haloperidol or clozapine

O=C1CCCN1CC#CCN1CCCC1 [oxotremorine]
reduction of c-AMP levels (agonist activity) [4]: showed the ability to reduce c-AMP levels

— US20060199978A1, “Compounds having serotonin 5-ht17 receptor antagonist activity and muscarinic m4 receptor agonist activity and their use in the treatment of psychotic disorders” (priority 2003, published 2006)
